In series [1] the target is T1, Mitogen-activated protein kinase 8 (Homo sapiens, UniProt P45983). As to the kind of experiment: Inhibition of JNK1 (unknown origin) assessed as incorporation of 33P-ATP.
Series [2] addresses Mitogen-activated protein kinase 10 (Homo sapiens, UniProt P53779). As to the kind of experiment: Inhibition of human JNK3 incubated for 40 mins in presence of ATP and [gamma33P-ATP] by scintillation counting method. The note with it: read-out: IC50.
The target of series [3] is T2, Mitogen-activated protein kinase 9 (Homo sapiens, UniProt P45984). Put plainly: Inhibition of JNK2 (unknown origin) assessed as incorporation of 33P-ATP.
T2 sequence (P45984 whole entry): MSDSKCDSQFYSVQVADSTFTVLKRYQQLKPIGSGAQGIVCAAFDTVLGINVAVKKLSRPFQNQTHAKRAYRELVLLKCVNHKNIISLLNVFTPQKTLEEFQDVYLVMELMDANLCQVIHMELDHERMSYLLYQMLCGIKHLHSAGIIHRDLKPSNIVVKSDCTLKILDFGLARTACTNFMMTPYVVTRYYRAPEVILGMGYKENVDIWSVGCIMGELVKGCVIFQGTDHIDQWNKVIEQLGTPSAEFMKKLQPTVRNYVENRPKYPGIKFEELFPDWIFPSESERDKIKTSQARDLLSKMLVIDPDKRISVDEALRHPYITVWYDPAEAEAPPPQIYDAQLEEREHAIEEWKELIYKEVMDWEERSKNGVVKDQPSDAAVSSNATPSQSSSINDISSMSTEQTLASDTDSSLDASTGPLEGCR
The target of series [4] is T2, Mitogen-activated protein kinase 9. Put plainly: Inhibition of JNK2 (unknown origin) by ATP-competitive assay.
Series [5] concerns the target T1, Mitogen-activated protein kinase 8. Put plainly: Inhibition of JNK1 (unknown origin) by ATP-competitive assay.
Series [6] has the same target. As to the kind of experiment: Inhibition of human JNK1 incubated for 40 mins in presence of ATP and [gamma33P-ATP] by scintillation counting method.
Series [7] deals with Cortical neurone. As to the kind of experiment: Neuroprotective activity against Amyloid beta (1 to 42)-induced toxicity in rat cortical neuron assessed as cell viability at 20 uM measured after 48 hrs by MTT assay. The format is functional. The following applies: read-out: Activity. On the technique in general: Tetrazolium dyes change colour on reduction, which living cells bring about.

Series [8] can be described thus: Oral bioavailability in Sprague-Dawley rat at 15 mg/kg measured upto 24 hrs by UPLC analysis. The format is ADME, organism-based. The note with it: in vivo.
Series [9] in a line: AUC in Sprague-Dawley rat at 1 mg/kg, iv measured upto 24 hrs by UPLC analysis. The format is ADME, organism-based. The note with it: in vivo. The arrangement: dose 1 mg/kg, time < 24 hrs, route iv.
Series [10] can be described thus: Half life in Sprague-Dawley rat at 1 mg/kg, iv measured upto 24 hrs by UPLC analysis. Type of series: ADME, organism-based. The following applies: in vivo.
A short description of series [11]: Tmax in Sprague-Dawley rat at 15 mg/kg, po measured upto 24 hrs by UPLC analysis. The following applies: in vivo. Type of series: ADME, organism-based.
A short description of series [12]: Half life in Sprague-Dawley rat at 15 mg/kg, po measured upto 24 hrs by UPLC analysis. The format is ADME, organism-based. The note with it: in vivo.
For series [13], the target named is T2, Mitogen-activated protein kinase 9. As to the kind of experiment: Inhibition of human JNK2 incubated for 40 mins in presence of ATP and [gamma33P-ATP] by scintillation counting method.
Series [14] can be described thus: AUC in Sprague-Dawley rat at 15 mg/kg, po measured upto 24 hrs by UPLC analysis. Type of series: ADME, organism-based. Details: dose 15 mg/kg, time < 24 hrs, route po. The note with it: in vivo.
The test system of series [15] is Cortical neurone. As to the kind of experiment: Neuroprotective activity against Amyloid beta (1 to 42)-induced toxicity in rat cortical neuron assessed as cell viability at 20 uM measured after 24 hrs by MTT assay. Type of series: functional. The following applies: read-out: Activity.
Series [16] in a line: Cmax in Sprague-Dawley rat at 15 mg/kg, po measured upto 24 hrs by UPLC analysis. The format is ADME, organism-based. The arrangement: dose 15 mg/kg, time < 24 hrs, route po. The note with it: in vivo.

A value given as a limit tells only on which side of the number the result lay.

T1 sequence (P45983 whole entry): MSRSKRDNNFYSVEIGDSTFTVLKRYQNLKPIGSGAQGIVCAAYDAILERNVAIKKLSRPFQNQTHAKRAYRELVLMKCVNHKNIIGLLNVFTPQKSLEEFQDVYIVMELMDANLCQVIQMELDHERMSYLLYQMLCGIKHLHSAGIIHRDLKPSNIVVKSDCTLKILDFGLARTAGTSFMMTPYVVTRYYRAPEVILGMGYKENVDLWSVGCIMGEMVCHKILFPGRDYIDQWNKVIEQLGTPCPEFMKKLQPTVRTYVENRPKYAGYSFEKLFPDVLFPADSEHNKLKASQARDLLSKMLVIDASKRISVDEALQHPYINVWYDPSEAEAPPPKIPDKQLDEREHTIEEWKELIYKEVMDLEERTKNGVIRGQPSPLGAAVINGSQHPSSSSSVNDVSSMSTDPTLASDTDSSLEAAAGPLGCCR
Chain of Mitogen-activated protein kinase 10 (P53779 whole entry): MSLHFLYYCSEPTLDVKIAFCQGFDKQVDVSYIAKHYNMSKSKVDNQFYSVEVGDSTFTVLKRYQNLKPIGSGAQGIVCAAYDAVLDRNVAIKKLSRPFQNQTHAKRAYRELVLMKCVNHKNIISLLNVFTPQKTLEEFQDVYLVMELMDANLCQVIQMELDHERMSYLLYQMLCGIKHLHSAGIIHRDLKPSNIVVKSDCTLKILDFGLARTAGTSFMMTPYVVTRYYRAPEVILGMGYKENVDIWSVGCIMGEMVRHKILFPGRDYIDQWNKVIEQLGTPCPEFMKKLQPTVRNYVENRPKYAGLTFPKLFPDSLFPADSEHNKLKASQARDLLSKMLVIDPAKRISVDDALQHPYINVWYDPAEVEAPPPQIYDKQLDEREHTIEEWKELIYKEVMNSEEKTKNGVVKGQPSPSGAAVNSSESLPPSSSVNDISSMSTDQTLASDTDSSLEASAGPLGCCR

For orientation: IC50 means the midpoint of a concentration-inhibition curve. `O=C(C1CC1)N1CCC[C@H](Nc2nccc(-n3c(-c4ccc5c(c4)OCCO5)nc4cc(O)c(O)cc43)n2)C1`: the IC50 was over 10 µM in series [1], 0.01 µM in [2] and about 1 µM in series [3].
With `O=C1c2ccccc2C2=NNC3=CC=CC1C32` (configuration not stated), the 50% inhibitory concentration (IC50) in series [4] and in [5] was 0.04 µM each time.
The term bioavailability denotes the share of a dose that reaches the circulation, judged against a reference dose that is usually intravenous. The AUC is the area under the concentration-time curve, a measure of exposure. Read a high AUC as high exposure. Broadly, the half-life is the time in which the quantity being followed falls by half. Read a low half-life as fast loss. One may read the Tmax as the time from dosing to the highest level. As a reminder, the Cmax is the peak of the concentration-time curve. Turning to `N#CCc1cnc(-c2ccc(Cl)c(Cl)c2)n1-c1ccnc(N[C@H]2CCCN(C(=O)C3CC3)C2)n1`, the IC50 in series [6] amounted to 0.312 µM; in series [2] it was 0.002 µM; in series [13], 0.0442 µM. The viability at 20 µM with Cortical neurone [7] worked out at 47%; in the series with Cortical neurone [15], 72.4%. Also, the bioavailability in [8] is 6.2%. In addition, the AUC at 24 h in series [9] is 902 ng·h/mL; in series [14] it was 839 ng·h/mL. The half-life is 12.6 min in [10] and 105 min in series [12]. Moreover, the Tmax in series [11] was 40.2 min. For the same molecule, the Cmax in series [16] is 406 ng/mL.
